By CC50 is commonly meant the concentration giving 50% cytotoxicity. The low end stands for greater toxicity to the cells, the high end for lower toxicity to the cells. By EC50 is commonly meant the concentration giving half of the maximal effect.

Like-named read-outs stand apart in the source and are kept apart here.

The nature of series [1]: Cytotoxicity assay in HEp-2 cells. The series is classed as cell-based. Particulars: human, uninfected HEp-2 cells, CellTiter Glo. How it is done: Cytotoxicity of tested compounds is determined in uninfected HEp-2 cells in parallel with the antiviral activity using the cell viability reagent in a similar fashion as described before for other cell types (Cihlar et al., Antimicrob Agents Chemother. 2008, 52(2):655-65.). The same protocol as for the determination of antiviral activity is used for the measurement of compound cytotoxicity except that the cells are not infected with RSV. Instead, an uninfected cell mixture at the same density is added at 20 ul/well to plates containing prediluted compounds, also at 100 nl/sample. Assay plates are then incubated for 4 days followed by a cell viability test using the same CellTiter Glo reagent addition and measurement of luminescent readouts. Untreated cell and cells treated at 2 uM puromycin (Sigma, St. Louis, Mo.) serve as 100% and 0% cell viability control, respectively. The percent of cell viability is calculated for each tested compound concentration relative to the 0% and 100% controls and the CC50 value is determined by non-linear regression as a compound concentration reducing the cell viability by 50%.

In series [2] the test system is RSV strain A2. Description: Anti-RSV activity, infectious cytopathic cell protection assay in HEp-2 cells. The series is classed as cell-based, Respiratory Syncytial Virus (RSV). To be noted: human respiratory syncytial virus. On the procedure: Antiviral activity against RSV is determined using an infectious cytopathic cell protection assay in HEp-2 cells. In this assay, compounds inhibiting viral infection and/or replication produce a cytoprotective effect against the virus-induced cell killing that can be quantified using a cell viability reagent. The techniques used here are novel adaptations of methods described in published literature (Chapman et al., Antimicrob Agents Chemother. 2007, 51(9):3346-53.)
HEp-2 cells are obtained from ATCC (Manassas, VI) and maintained in MEM media supplemented with 10% fetal bovine serum and penicillin/streptomycin. Cells are passaged twice a week and kept at subconfluent stage. Commercial stock of RSV strain A2 (Advanced Biotechnologies, Columbia, Md.) is titered before compound testing to determine the appropriate dilution of the virus stock that generates desirable cytopathic effect in HEp-2 cells.
For antiviral tests, HEp-2 cells are grown in large cell culture flasks to near confluency but not fully so. The compounds to be tested are prediluted in DMSO in 384-well compound dilution plates, either in an 8 or 40 sample per plate standardized dose response format. 3-fold serial dilution increments of each test compound are prepared in the plates and test samples are transferred via acoustic transfer apparatus (Echo, Labcyte) at 100 nl per well into cell culture assay 384-well plates. Each compound dilution is transferred in single or quadruplicate samples into dry assay plates, which are stored until assay is ready to go. The positive and negative controls are laid out in opposite on ends of the plate in vertical blocks (1 column).
Subsequently, an infectious mixture is prepared using an appropriate dilution of virus stock previously determined by titration with cells at a density of 50,000/ml and 20 uL/well is added to test plates w/compounds via automation (uFlow, Biotek). Each plate includes negative and positive controls (16 replicates each) to create 0% and 100% virus inhibition standards, respectively. Following the infection with RSV, testing plates are incubated for 4 days in a 37° C. cell culture incubator. After the incubation, a cell viability reagent, Cell TiterGlo (Promega, Madison, Wis.) is added to the assay plates, which are incubated briefly, and a luminescent readout is measured (Envision, Perkin Elmer) in all the assay plates. The RSV-induced cytopathic effect, percentage inhibition, is determined from the levels of remaining cell viability. These numbers are calculated for each tested concentration relative to the 0% and 100% inhibition controls, and the EC50 value for each compound is determined by non-linear regression as a concentration inhibiting the RSV-induced cytopathic effect by 50%. Various potent anti-RSV tool compounds are used as positive controls for antiviral activity.
(Protection from cytopathic effect is a common read-out in antiviral testing.)

A short description of series [3]: Cytotoxicity assay in MT-4 cells. The series is classed as cell-based. To be noted: human, Cell-Titer Glo. On the procedure:
The MT-4 cell line was obtained from the NIH AIDS Research and Reference Reagent Program (Germantown, Md.) and cultured in RPMI-1640 medium (Irvine Scientific, Santa Ana, Calif., Cat #9160) supplemented with 10% FBS, 100 units/mL penicillin, 100 units/mL streptomycin, and 2 mM L-Glutamine. The MT-4 cells were passaged twice per week to maintain cell densities below 0.6×10^6 cells/mL. Complete RPMI-1640 media containing 100× concentrations of 3-fold serially diluted compound, ranging from 26 nM to 530 μM, were stamped in quadruplicate into black 384-well plates. After compound addition, 2×10^3 MT-4 cells were added to each well using a MicroFlo liquid dispenser (BioTek, Winooski, Vt.) and the cells were cultured for 5 days at 37° C. in a 5% CO2 incubator. Following the incubation the cells were allowed to equilibrate to 25° C. and cell viability was determined by adding 25 μL of Cell-Titer Glo viability reagent. The mixture was incubated for 10 minutes at 25° C., and the luminescence signal was quantified on a Victor Luminescence plate reader. The CC50 value is defined as the concentration of compound that reduces cell viability by 50% as determined by the Cell-Titer Glo signal. The data were analyzed using Pipeline Pilot Plate Data Analytics Collection software (Version 7.0, Accelrys, San Diego, Calif.). CC50 values were calculated from a non-linear regression analysis using a 4-parameter sigmoidal dose-response equation: Y=Bottom+(Top−Bottom)/(1+10^[(Log CC50−X)*HillSlope]) where the Top and Bottom were fixed at 100% and 0% cell viability, respectively. CC50 values were calculated as the average±standard deviation of 3 independent experiments.

Where [4] appears, read: 96 h, HEp-2 cells infected with RSV A2, 4 days, Cell TiterGlo, read-out: EC50.
Setting [5] is: HEp-2 anti-RSV activity, read-out: EC50 (HEp-2 anti-RSV activity).

Compound `N#C[C@]1(CO)O[C@@H](c2cc(F)c3c(N)ncnn23)[C@H](F)[C@@H]1O` [Example 23, (2R,3R,4R,5S)-5-(4-amino-5-fluoropyrrolo[2,1-f][1,2,4]triazin-7-yl)-4-fluoro-3-hydroxy-2-(hydroxymethyl)tetrahydrofuran-2-carbonitrile] yielded a cytotoxic concentration (CC50) at 4 days in series [1] of 72 µM. Moreover, the EC50 in series [2] (setting [4]) was 23.5 µM; in series [2] (setting [5]) it was less than 100 µM. Also, the half-maximal cytotoxic concentration (CC50) at 5 days in series [3] is 21 µM.
With `CCOC(=O)[C@H](C)NP(=O)(OC[C@@]1(C#N)O[C@@H](c2ccc3c(N)ncnn23)[C@H](O)[C@@H]1O)Oc1ccccc1` (stereo partly drawn) [Example 35, (2S)-ethyl 2-(((((2R,3S,4R,5S)-5-(4-aminopyrrolo[2,1-f][1,2,4]triazin-7-yl)-2-cyano-3,4-dihydroxytetrahydrofuran-2-yl)methoxy)(phenoxy)phosphoryl)amino) propanoate], in series [1], the CC50 at 4 days is greater than 50 µM. This compound also displayed an EC50 in series [2] (HEp-2, 96 h) of 0.34 µM. Also, in series [3], the CC50 at 5 days is 47 µM.
The matching figures for `CC(C)(C)C(=O)SCCOP(=O)(OCCSC(=O)C(C)(C)C)OC[C@@]1(C#N)O[C@@H](c2ccc3c(N)ncnn23)[C@H](F)[C@@H]1O` [Example 11, S,S′-2,2′-((((2R,3R,4R,5S)-5-(4-aminopyrrolo[1,2-f][1,2,4]triazin-7-yl)-2-cyano-4-fluoro-3-hydroxytetrahydrofuran-2-yl)methoxy)phosphoryl)bis(oxy)bis(ethane-2,1-diyl)bis(2,2-dimethylpropanethioate)]: 42 µM, 1.2 µM and 19.7 µM.
With `Nc1ncnn2c([C@@H]3O[C@H](CO)[C@@H](O)[C@H]3F)ccc12` [(2R,3R,4R,5S)-5-(4-aminopyrrolo[1,2-f][1,2,4]triazin-7-yl)-4-fluoro-2-(hydroxymethyl)tetrahydrofuran-3-ol, reference compound], the EC50 in series [2] (setting [4]) is greater than 100 µM. This compound also returned a half-maximal cytotoxic concentration (CC50) at 5 days in series [3] of 30 µM.
The compound `Nc1ncnn2c([C@@H]3O[C@H](CO)[C@@H](O)[C@H]3O)ccc12` [(2S,3R,4S,5R)-2-(4-aminopyrrolo[1,2-t][1,2,4]triazin-7-yl)-5-(hydroxymethyl)tetrahydrofuran-3,4-diol, reference compound] displayed a 50% cytotoxic concentration (CC50) at 5 days in series [3] of 0.007 µM.
The compound `[N-]=[N+]=N[C@]1(CO)O[C@@H](c2ccc3c(N)ncnn23)[C@H](F)[C@@H]1O` [Example 19, (2R,3R,4R,5S)-5-(4-aminopyrrolo[2,1-f][1,2,4]triazin-7-yl)-2-azido-4-fluoro-2-(hydroxymethyl)tetrahydrofuran-3-ol] gave a CC50 at 4 days in series [1] greater than 44 µM. For the same compound, the concentration for a half-maximal effect (EC50) in series [2] (setting [4]) was 0.4 µM; in series [2] (setting [5]) it was less than 100 µM. Further, the CC50 at 5 days in series [3] was 16 µM.
Compound `C=C[C@]1(CO)O[C@@H](c2ccc3c(N)ncnn23)[C@H](F)[C@@H]1O` [Example 13, (2R,3R,4R,5S)-5-(4-aminopyrrolo[1,2-f][1,2,4]triazin-7-yl)-4-fluoro-2-(hydroxymethyl)-2-vinyltetrahydrofuran-3-ol] returned a CC50 at 4 days in series [1] greater than 100 µM. The EC50 in series [2] (setting [4]) was 10.5 µM; in series [2] (setting [5]) it was less than 100 µM. The compound further came in with a half-maximal cytotoxic concentration (CC50) at 5 days in series [3] greater than 106 µM.
In series [1], `[N-]=[N+]=N[C@]1(CO)O[C@@H](c2cc(F)c3c(N)ncnn23)[C@H](F)[C@@H]1O` [Example 21, (2R,3R,4R,5S)-5-(4-amino-5-fluoropyrrolo[2,1-f][1,2,4]triazin-7-yl)-2-azido-4-fluoro-2-(hydroxymethyl)tetrahydrofuran-3-ol] came in with a 50% cytotoxic concentration (CC50) at 4 days of 36 µM. Further, the EC50 in series [2] (setting [4]) is 50 µM; in series [2] (setting [5]) it was less than 100 µM. Besides, the cytotoxic concentration (CC50) at 5 days in series [3] is 15 µM.
For the compound `C=C[C@]1(CO)O[C@@H](c2ccc3c(N)ncnn23)[C@H](O)[C@@H]1O` [Example 20, (2R,3S,4R,5S)-5-(4-aminopyrrolo[2,1-f][1,2,4]triazin-7-yl)-2-(hydroxymethyl)-2-vinyltetrahydrofuran-3,4-diol], the cytotoxic concentration (CC50) at 4 days in series [1] is greater than 50 µM. Moreover, the EC50 in series [2] (setting [4]) is greater than 50 µM. In addition, the cytotoxic concentration (CC50) at 5 days in series [3] was greater than 53 µM.
With `CC[C@]1(CO)O[C@@H](c2ccc3c(N)ncnn23)[C@H](F)[C@@H]1O` [Example 14, (2R,3R,4R,5S)-5-(4-aminopyrrolo[1,24][1,2,4]triazin-7-yl)-2-ethyl-4-fluoro-2-(hydroxymethyl)tetrahydrofuran-3-ol], the 50% cytotoxic concentration (CC50) at 4 days in series [1] was greater than 100 µM. For the same compound, the values for the 50% effective concentration (EC50) in series [2] (setting [4]) and in series [2] (setting [5]) were 40 µM and less than 100 µM, respectively. The same compound registered a CC50 at 5 days in series [3] greater than 106 µM.
Regarding `C[C@]1(CO)O[C@@H](c2ccc3c(N)ncnn23)[C@H](O)[C@@H]1O` [Example 4, (2R,3S,4R,5S)-5-(4-aminopyrrolo[1,2-f][1,2,4]triazin-7-yl)-2-(hydroxymethyl)-2-methyltetrahydrofuran-3,4-diol], in series [1], the half-maximal cytotoxic concentration (CC50) at 4 days is greater than 50 µM. The concentration giving a half-maximal response (EC50) in series [2] (setting [4]) was found to be 30 µM. In series [3], the half-maximal cytotoxic concentration (CC50) at 5 days was greater than 53 µM.
In series [1], `C[C@]1(CO)O[C@@H](c2ccc3c(N)ncnn23)[C@H](F)[C@@H]1O` [Example 24, (2R,3R,4R,5S)-5-(4-aminopyrrolo[2,1-f][1,2,4]triazin-7-yl)-4-fluoro-2-(hydroxymethyl)-2-methyltetrahydrofuran-3-ol] registered a CC50 at 4 days greater than 100 µM. For the same compound, the EC50 in series [2] (setting [4]) was 1 µM; in series [2] (setting [5]) it was less than 100 µM. Further, it took 11 µM to reach half-maximal cytotoxicity in series [3] (CC50 at 5 days).
Compound `CCC(CC)COC(=O)[C@H](C)NP(=O)(OC[C@@]1(N=[N+]=[N-])O[C@@H](c2ccc3c(N)ncnn23)[C@H](O)[C@@H]1O)Oc1ccccc1` (stereo partly drawn) [Example 16, (2S)-2-ethylbutyl 2-(((((2R,3S,4R,5S)-5-(4-aminopyrrolo[2,1-f][1,2,4]triazin-7-yl)-2-azido-3,4-dihydroxytetrahydrofuran-2-yl)methoxy)(phenoxy)phosphoryl)amino)propanoate] had a CC50 at 4 days in series [1] of 18 µM. The compound further yielded a concentration giving a half-maximal response (EC50) in series [2] (HEp-2, 96 h) of 0.3 µM. The half-maximal cytotoxic concentration (CC50) at 5 days in series [3] came out at 25 µM.
Taken in the same sequence, the figures for `CCC(CC)COC(=O)[C@H](C)NP(=O)(OC[C@@]1(C#N)O[C@@H](c2ccc3c(N)ncnn23)C(F)C1O)Oc1ccccc1` (stereo partly drawn) [Example 12, (2S)-2-ethylbutyl 2-((((2R,3R,4R,5S)-5-(4-aminopyrrolo[1,2-f][1,2,4]triazin-7-yl)-2-cyano-4-fluoro-3-hydroxytetrahydrofuran-2-yl)methoxy)(phenoxy)phosphorylamino)propanoate] were greater than 50 µM, 3 µM and 27 µM.

(Values after US9388208B2, “Pyrrolo[1,2-f][1,2,4]triazines useful for treating respiratory syncitial virus infections” (Gilead Sciences, Inc., priority 2013, dated 2016).)
